Patent publication US20260007684A1, “AMIDE DERIVATIVES FOR INHIBITING NLRP3 AND USES THEREOF” (Ventus Therapeutics U.S., Inc., priority 2023, published 2026)
Where two headings read alike, the source gives them in different places.

Biological target: human NLRP3 (Homo sapiens (Human), UniProt Q96P20)
Assay: Scintillation Proximity (SPA) NLRP3 Assay: displacement of 3H-MCC950
Assay type: binding
[1] = displacement of 3H-MCC950, read-out: SPA IC50
[2] = SPA IC50, displacement of 3H-MCC950

Sequence of human NLRP3 (Q96P20 whole entry): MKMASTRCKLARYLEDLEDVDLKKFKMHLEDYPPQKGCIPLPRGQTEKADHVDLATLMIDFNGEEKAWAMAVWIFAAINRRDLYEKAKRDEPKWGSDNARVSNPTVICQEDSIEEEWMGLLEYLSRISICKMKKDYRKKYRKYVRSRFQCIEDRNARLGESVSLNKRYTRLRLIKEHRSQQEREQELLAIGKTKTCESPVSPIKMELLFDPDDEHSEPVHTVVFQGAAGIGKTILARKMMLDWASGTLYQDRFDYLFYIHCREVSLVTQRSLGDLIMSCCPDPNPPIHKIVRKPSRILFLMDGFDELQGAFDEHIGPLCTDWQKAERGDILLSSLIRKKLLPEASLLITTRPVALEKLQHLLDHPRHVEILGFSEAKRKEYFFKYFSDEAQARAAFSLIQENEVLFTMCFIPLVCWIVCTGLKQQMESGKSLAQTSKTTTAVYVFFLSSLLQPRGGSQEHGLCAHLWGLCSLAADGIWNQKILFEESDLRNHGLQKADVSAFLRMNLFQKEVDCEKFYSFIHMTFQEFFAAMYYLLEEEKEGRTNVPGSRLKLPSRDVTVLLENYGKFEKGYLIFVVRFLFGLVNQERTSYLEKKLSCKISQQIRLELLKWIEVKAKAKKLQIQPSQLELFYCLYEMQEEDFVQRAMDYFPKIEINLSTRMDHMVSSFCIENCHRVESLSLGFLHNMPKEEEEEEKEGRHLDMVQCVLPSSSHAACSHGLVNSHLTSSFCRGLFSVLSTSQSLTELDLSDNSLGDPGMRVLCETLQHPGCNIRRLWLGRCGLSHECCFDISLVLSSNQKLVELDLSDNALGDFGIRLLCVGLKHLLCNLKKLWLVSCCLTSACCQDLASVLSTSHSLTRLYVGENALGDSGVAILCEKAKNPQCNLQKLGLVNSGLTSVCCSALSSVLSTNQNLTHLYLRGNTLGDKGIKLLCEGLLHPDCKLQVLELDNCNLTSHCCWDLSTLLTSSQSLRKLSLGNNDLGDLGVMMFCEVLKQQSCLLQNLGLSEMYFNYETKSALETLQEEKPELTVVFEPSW

Row | Compound | IC50 [1] [µM] | IC50 [2] [µM]
1 | Cc1ccc(C2(C(=O)N[C@@H]3C[C@@H](C)CCN(c4nnn[nH]4)C3)CC2)c(O)c1F (single isomer, unassigned) [74C*] | 10 to 50 | –
2 | C[C@H]1CCN(c2nnn[nH]2)C[C@@H](NC(=O)C2(c3ccc(Cl)c(F)c3F)CC2)C1 (single isomer, unassigned) [4D*, 1-(4-chloro-2,3-difluorophenyl)-N-(5-methyl-1-(1H-tetrazol-5-yl)azepan-3-yl)cyclopropane-1-carboxamide] | 1 to 10 | –
3 | Cc1c(Cl)ccc(C2(C(=O)N[C@H]3C[C@@H](C)CCN(c4nnn[nH]4)C3)CC2)c1O (single isomer, unassigned) [21D*, 1-(4-chloro-2-hydroxy-3-methylphenyl)-N-(5-methyl-1-(1H-tetrazol-5-yl)azepan-3-yl)cyclopropane-1-carboxamide] | 10 to 50 | –
4 | O=C(N[C@@H]1CCC[C@@H]2CC[C@H]1N2c1nnn[nH]1)C1(c2ccc(Cl)cc2)CC1 (single isomer, unassigned) [9A*, N-(9-(1H-tetrazol-5-yl)-9-azabicyclo[4.2.1]nonan-2-yl)-1-(4-chlorophenyl)cyclopropane-1-carboxamide] | – | 1 to 10
5 | O=C(N[C@H]1CCC[C@H]2CC[C@@H]1N2c1nnn[nH]1)C1(c2ccc(C(F)(F)F)cc2O)CC1 [88D*, N-((1S,2S,6S)-9-(1H-tetrazol-5-yl)-9-azabicyclo[4.2.1]nonan-2-yl)-1-(2-hydroxy-4-(trifluoromethyl)phenyl)cyclopropane-1-carboxamide] | – | 1 to 10
6 | C[C@@H]1CCN(c2nnn[nH]2)C[C@@H](NC(=O)C2(c3ccc(Cl)c(F)c3F)CC2)C1 (single isomer, unassigned) [4B*, 1-(4-chloro-2,3-difluorophenyl)-N-(5-methyl-1-(1H-tetrazol-5-yl)azepan-3-yl)cyclopropane-1-carboxamide] | 10 to 50 | –
7 | C[C@H]1C[C@H](NC(=O)C2(c3ccc(OC(F)F)cc3O)CC2)[C@@H]2CC[C@H]1N2c1nnn[nH]1 [43D*, N-((1S,2S,4S,5R)-4-methy1-8-(1H-tetrazol-5-yl)-8-azabicyclo[3.2.1]octan-2-yl)-1-(4-(difluoromethoxy)-2-hydroxyphenyl)cyclopropane-1-carboxamide] | 10 to 50 | –
8 | Cc1c(Cl)ccc(C2(C(=O)N[C@@H]3C[C@@H](C)CCN(c4nnn[nH]4)C3)CC2)c1O (single isomer, unassigned) [21C*, 1-(4-chloro-2-hydroxy-3-methylphenyl)-N-(5-methyl-1-(1H-tetrazol-5-yl)azepan-3-yl)cyclopropane-1-carboxamide] | > 100 | –
9 | C[C@H]1C[C@@H](NC(=O)C2(c3ccc(C(F)(F)F)nc3O)CC2)CN(c2nnn[nH]2)C1 [Compound 24A, 1-(2-hydroxy-6-(trifluoromethyl)pyridin-3-yl)-N-((3R,5S)-5-methyl-1-(1H-tetrazol-5-yl)piperidin-3-yl)cyclopropane-1-carboxamide] | 1 to 10 | –
10 | Cc1cc(C2(C(=O)N[C@H]3C[C@H](C)CCN(c4nnn[nH]4)C3)CC2)ccc1C(F)(F)F (single isomer, unassigned) [6B*, N-(5-methyl-1-(1H-tetrazol-5-yl)azepan-3-yl)-1-(3-methyl-4-(trifluoromethyl)phenyl)cyclopropane-1-carboxamide] | 50 to 100 | –
11 | C[C@H]1C[C@H](NC(=O)C2(c3ccc(OC(F)F)cc3F)CC2)[C@@H]2CC[C@H]1N2c1nnn[nH]1 (stereo in doubt) [101D*, 1-(4-(difluoromethoxy)-2-fluorophenyl)-N-(4-methyl-8-(1H-tetrazol-5-yl)-8-azabicyclo[3.2.1]octan-2-yl)cyclopropane-1-carboxamide] | 10 to 50 | –
12 | C[C@H]1C[C@H](NC(=O)C2(c3ccc(C(F)(F)F)cc3F)CC2)[C@@H]2CC[C@H]1N2c1nnn[nH]1 [84D*, 1-(2-fluoro-4-(trifluoromethyl)phenyl)-N-((1S,2S,4S,5R)-4-methy1-8-(1H-tetrazol-5-yl)-8-azabicyclo[3.2.1]octan-2-yl)cyclopropane-1-carboxamide] | > 100 | –
13 | C[C@H]1C[C@H](NC(=O)C2(c3ccc(C4CC4)c(F)c3O)CC2)[C@@H]2CC[C@H]1N2c1nnn[nH]1 [83D*, 1-(4-cyclopropyl-3-fluoro-2-hydroxyphenyl)-N-((1S,2S,4S,5R)-4-methy1-8-(1H-tetrazol-5-yl)-8-azabicyclo[3.2.1]octan-2-yl)cyclopropane-1-carboxamide] | > 100 | –
14 | O=C(N[C@@H]1CCC[C@H]2CC[C@@H]1N2c1nnn[nH]1)C1(c2ccc(C3CC3)cc2O)CC1 [93C*, N-((1S,2R,6S)-9-(1H-tetrazol-5-yl)-9-azabicyclo[4.2.1]nonan-2-yl)-1-(4-cyclopropyl-2-hydroxyphenyl)cyclopropane-1-carboxamide] | – | 10 to 50
15 | C[C@@H]1C[C@H](NC(=O)C2(c3ccc(C4CC4)c(F)c3O)CC2)[C@H]2CC[C@@H]1N2c1nnn[nH]1 [83B*, 1-(4-cyclopropy1-3-fluoro-2-hydroxyphenyl)-N-((1R,2S,4R,5S)-4-methyl-8-(1H-tetrazol-5-yl)-8-azabicyclo[3.2.1]octan-2-yl)cyclopropane-1-carboxamide] | 10 to 50 | –
16 | C[C@H]1C[C@H](NC(=O)C2(c3ccc(OC(F)(F)F)cc3)CC2)[C@@H]2CC[C@H]1N2c1nnn[nH]1 [82D*, N-((1S,2S,4S,5R)-4-methy1-8-(1H-tetrazol-5-yl)-8-azabicyclo[3.2.1]octan-2-yl)-1-(4-(trifluoromethoxy)phenyl)cyclopropane-1-carboxamide] | > 100 | –
17 | C[C@@H]1C[C@H](NC(=O)C2(c3ccc(C(F)(F)F)cc3F)CC2)[C@H]2CC[C@@H]1N2c1nnn[nH]1 [84B*, 1-(2-fluoro-4-(trifluoromethyl)phenyl)-N-((1R,2S,4R,5S)-4-methyl-8-(1H-tetrazol-5-yl)-8-azabicyclo[3.2.1]octan-2-yl)cyclopropane-1-carboxamide] | 10 to 50 | –
18 | C[C@H]1C[C@H](NC(=O)C2(c3ccc(C4CC4)cc3)CC2)[C@@H]2CC[C@H]1N2c1nnn[nH]1 [81D*] | 10 to 50 | –

More lines, main results first:

Row | IC50 [1] [µM] | Compound | IC50 [2] [µM]
19 | > 100 | C[C@@H]1CCN(c2nnn[nH]2)C[C@@H]1NC(=O)C1(c2ccc(Cl)cc2)CC1 [Compound 49A, 1-(4-chlorophenyl)-N-[(3R,4R)-4-methy1-1-(1H-tetrazol-5-yl)-3-piperidyl]cyclopropanecarboxamide] | –
20 | 50 to 100 | O=C(NC1CC(C2CC2)CN(c2nnn[nH]2)C1)C1(c2ccc(Cl)cc2)CC1 (single isomer, unassigned) [Rac-13B*/C*, 1-(4-chlorophenyl)-N-(5-cyclopropyl-1-(1H-tetrazol-5-yl)piperidin-3-yl)cyclopropane-1-carboxamide] | –
21 | 10 to 50 | C[C@H]1CCN(c2nnn[nH]2)C[C@@H](NC(=O)C2(c3ccc(C(F)F)cc3)CC2)C1 (single isomer, unassigned) [5D*, 1-(4-(difluoromethyl)phenyl)-N-(5-methyl-1-(1H-tetrazol-5-yl)azepan-3-yl)cyclopropane-1-carboxamide] | –
22 | 1 to 10 | C[C@@H]1CCN(c2nnn[nH]2)C[C@H](NC(=O)C2(c3ccc(C4CCC4)cc3)CC2)C1 (single isomer, unassigned) [8A*, 1-(4-cyclobutylphenyl)-N-(5-methyl-1-(1H-tetrazol-5-yl)azepan-3-yl)cyclopropane-1-carboxamide] | –
23 | 50 to 100 | C[C@H]1CCN(c2nnn[nH]2)C[C@@H](NC(=O)C2(c3ccc(Cl)cc3Cl)CC2)C1 (single isomer, unassigned) [55D*] | –
24 | < 1 | C[C@H]1CCN(c2nnn[nH]2)C[C@@H](NC(=O)C2(c3ccc(Cl)cc3O)CC2)C1 (single isomer, unassigned) [60D*] | –
25 | 10 to 50 | O=C(N[C@@H]1C[C@@H](F)CN(c2nnn[nH]2)C1)C1(c2ccc(Cl)cc2)CC1 [Compound 44C, 1-(4-chlorophenyl)-N-[(3R,5R)-5-fluoro-1-(1H-tetrazol-5-yl)-3-piperidyl]cyclopropanecarboxamide] | –
26 | 50 to 100 | C[C@H]1CCN(c2nnn[nH]2)C[C@H](NC(=O)C2(c3ccc(Cl)cc3Cl)CC2)C1 (single isomer, unassigned) [55C*] | –
27 | 10 to 50 | O=C(N[C@H]1CCCCCN(c2nnn[nH]2)C1)C1(c2ccc(Cl)cc2)CC1 (single isomer, unassigned) [14B*, N-(1-(1H-tetrazol-5-yl)azocan-3-yl)-1-(4-chlorophenyl)cyclopropane-1-carboxamide] | –
28 | 50 to 100 | C[C@H]1CCN(c2nnn[nH]2)C[C@H](NC(=O)C2(c3ccc(Br)cc3)CC2)C1 (single isomer, unassigned) [59C*] | –
29 | 1 to 10 | C[C@@H]1CCN(c2nnn[nH]2)C[C@@H](NC(=O)C2(c3ccc(C4CC4)cc3)CC2)C1 (single isomer, unassigned) [2B*] | –
30 | > 100 | Cc1cc(C2(C(=O)N[C@@H]3C[C@@H](C)CCN(c4nnn[nH]4)C3)CC2)ccc1C(F)(F)F (single isomer, unassigned) [6C*, N-(5-methyl-1-(1H-tetrazol-5-yl)azepan-3-yl)-1-(3-methyl-4-(trifluoromethyl)phenyl)cyclopropane-1-carboxamide] | –
31 | > 100 | C[C@H]1[C@H](NC(=O)C2(c3ccc(Cl)cc3)CC2)CCCN1c1nnn[nH]1 [Compound 40C, 1-(4-chlorophenyl)-N-[(2S,3R)-2-methyl-1-(1H-tetrazol-5-yl)-3-piperidyl]cyclopropanecarboxamide] | –
32 | 10 to 50 | C[C@H]1CCN(c2nnn[nH]2)C[C@@H](NC(=O)C2(c3ccc(C(F)(F)F)cc3)CC2)C1 (single isomer, unassigned) [61D*] | –
33 | > 100 | C[C@H]1CCN(c2nnn[nH]2)C[C@H](NC(=O)C2(c3ccc(Cl)cc3)CC2)C1 (single isomer, unassigned) [12C*, 1-(4-chlorophenyl)-N-(5-methyl-1-(1H-tetrazol-5-yl)azepan-3-yl)cyclopropane-1-carboxamide] | –
34 | 10 to 50 | C[C@@H]1CCN(c2nnn[nH]2)C[C@@H](NC(=O)C2(c3ccc(Cl)cc3)CC2)C1 (single isomer, unassigned) [12B*, 1-(4-chlorophenyl)-N-(5-methyl-1-(1H-tetrazol-5-yl)azepan-3-yl)cyclopropane-1-carboxamide] | –
35 | 10 to 50 | C[C@@H]1CCN(c2nnn[nH]2)C[C@@H](NC(=O)C2(c3ccc(SC(F)(F)F)cc3)CC2)C1 (single isomer, unassigned) [69B*] | –
36 | 50 to 100 | Cc1ccc(C2(C(=O)N[C@@H]3C[C@@H](C)CCN(c4nnn[nH]4)C3)CC2)cc1 (single isomer, unassigned) [71C*] | –
